No end group written: not given here.
What was measured:
[1] = test system: ghrelin receptor (GHS-R1A) knockout mice; conditions: alcohol 1.0 g/kg i.p.; GHS-R knockout mice vs wildtype; P<0.05
Text: Locomotor activity was registered in eight sound attenuated, ventilated and dimly lit locomotor boxes (420×420×200 mm, Plexiglas®). Five by five rows of photocell beams at the floor level of the box allowed a computer-based system to register the activity of the mice. The mice were allowed to habituate to the environment in the box for one hour before drug challenge and initialization of the experiment. […] Locomotor activity was defined as the accumulated number of new photocell beams interrupted during a 60-minute period.

[2] = test system: ghrelin receptor (GHS-R1A) knockout mice; conditions: alcohol 1.0 g/kg ip; GHSR knockout mice vs wt/wt
Description: The mice were implanted with a microdialysis probe in the nucleus accumbens for measurements of extracellular dopamine levels. […] The mice were connected to the microdialysis apparatus via a liquid swivel (CMA/Microdialysis AB, Stockholm, Sweden) and were able to move freely during the experiment. After one hour of habituation to the microdialysis perfusion set up, perfusion samples (30 μl) were collected every 20 minutes. Five samples were collected prior to the first alcohol challenge. The baseline dopamine level is defined as the averaged concentration of the three consecutive samples before the first alcohol challenge. Thereafter vehicle (saline, ip) was administered at time 0 minutes.

mice = experiment: Effects of central ghrelin injection on alcohol intake and alcohol preference, two-bottle free choice paradigm; assay type: in vivo; conditions: for average alcohol intake / average alcohol preference: ghrelin 2 μg in 1 μl into third ventricle; for average alcohol intake: baseline 1.65; for average alcohol preference: day before 26.76%
Text: The following studies sought to determine whether ghrelin increases alcohol intake and the preference for alcohol in mice selected on the basis of their spontaneous level of alcohol intake. We tested the effects of ghrelin injection into the brain ventricles on alcohol consumption and alcohol preference in mice.
All mice used in this study were selected on the basis of their spontaneously medium level of alcohol intake. Initially, the mice were able to choose freely between alcohol solution (10%) and water. When they had established a stable alcohol intake (approximately 20-80% of their total fluid intake was alcohol) they began a training schedule that gave them access to 10% alcohol for 90 min ever day over two weeks. The mice were then implanted with a cannula into the third ventricle of the brain for subsequent injection. During a baseline period, spontaneous alcohol intake was measured during a 90 min period average for 3 measurements taken on 3 days using a two-bottle free choice paradigm (i.e. water or 10% alcohol). The same protocol was used after ghrelin/vehicle injection on the experimental days.

[3] = intraventricular administration, p<0.05, paired t-test

Compound	alcohol-induced locomotor activity [1]	alcohol-induced accumbal dopamine release [2]	average alcohol intake (mice; experiment day one)	average alcohol preference (mice; experiment day one)	average alcohol intake (mice; experiment day two)	average alcohol preference (mice; experiment day two)	effect on alcohol intake compared to the day before the experiments (mice; [3])	effect on alcohol preference compared to the day before the experiments (mice; [3])
CCO [alcohol]	do not show an alcohol-induced locomotor activity	blunted	–	–	–	–	–	–
ghrelin (GSSFLSPEHQRVQQRKESKKPPAKLQPR; ends and bridges not checked; UniProt Q9UBU3 24-51, looked up) [endogenous ligand for GHS-R, secreted by stomach tissue; purchasable from Bachem]	–	–	1.72 g/kg/1.5 hr	31.72%	2.15 g/kg/1.5 hr	33.70%	increased the alcohol intake	significant increase of alcohol preference

Reference: patent US20100093638A1, “TREAMENT FOR CHEMICAL SUBSTANCE ADDICTION” (priority 2007, published 2010)
